Data published in patent US11584763B2, “Chromenopyridine derivatives as phosphatidylinositol phosphate kinase inhibitors” (HIBERCELL, INC., priority 2017, dated 2023).
pIC50: −log10 of the molar value.

Legend:
PIP4K2B = biological target: T1, PIP4K2B (Homo sapiens, UniProt P78356); assay: Trans-FI P kinase assay PIP4K2B (PIP4KtypeIIB inhibition assay); assay type: biochemical; conditions: compounds listed under IC50 bin headings; 100 uM GTP; read-out: Trans-FI P kinase assays: PIP4K2B IC50
T1 construct: made in house; host or cells: E. coli
T1 sequence (P78356 1-416): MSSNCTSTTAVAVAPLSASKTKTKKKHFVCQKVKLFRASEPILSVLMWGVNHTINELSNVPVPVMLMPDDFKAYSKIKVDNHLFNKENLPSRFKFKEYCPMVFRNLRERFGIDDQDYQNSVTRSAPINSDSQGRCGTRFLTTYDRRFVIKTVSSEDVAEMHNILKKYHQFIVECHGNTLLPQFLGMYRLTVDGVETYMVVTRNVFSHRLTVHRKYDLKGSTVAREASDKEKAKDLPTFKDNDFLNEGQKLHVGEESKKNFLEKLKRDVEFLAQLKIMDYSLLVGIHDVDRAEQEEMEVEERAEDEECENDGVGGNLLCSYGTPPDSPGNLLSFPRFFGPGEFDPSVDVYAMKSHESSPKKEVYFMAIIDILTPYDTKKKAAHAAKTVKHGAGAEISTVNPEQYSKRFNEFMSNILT
Outline: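 GST-tagged human PIP4K2B (5 nM, E. coli-expressed) preincubated 1 h at 27 C with compound (top 4.8 uM, 5% DMSO), then reacted 2 h with 100 uM GTP and 80 uM PI5P/DOPE vesicles in HEPES pH 7.3, MgCl2, Triton X-100. GDP detected by Transcreener FI fluorescence via calibration curve; IC50 from % activity vs log[inhibitor].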

PIP4K 2A = biological target: T2, PIP4K 2A (Homo sapiens, UniProt P48426); assay: ADP-glo kinase assay PIP4K 2A; assay type: biochemical; parameters: 4 nM PIP4K2A (full length protein, SignalChem); purchased SignalChem; conditions: compounds listed under IC50 bin headings
T2 sequence (P48426 1-406): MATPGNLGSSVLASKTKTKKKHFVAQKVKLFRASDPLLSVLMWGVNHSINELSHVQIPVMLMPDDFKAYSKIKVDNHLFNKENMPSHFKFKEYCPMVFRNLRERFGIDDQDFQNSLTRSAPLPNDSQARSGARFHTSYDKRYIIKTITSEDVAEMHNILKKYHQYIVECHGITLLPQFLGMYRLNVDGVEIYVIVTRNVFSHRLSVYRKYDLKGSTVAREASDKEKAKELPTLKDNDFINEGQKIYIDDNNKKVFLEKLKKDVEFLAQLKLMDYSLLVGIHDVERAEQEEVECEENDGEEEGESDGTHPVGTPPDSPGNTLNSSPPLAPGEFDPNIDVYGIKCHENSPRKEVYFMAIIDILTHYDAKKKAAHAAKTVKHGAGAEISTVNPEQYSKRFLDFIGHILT
Outline: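 Full-length PIP4K2A was pre-incubated 15 min at RT with compound in 20 mM MOPS pH 7.2, 25 mM MgCl2, 0.005% Tween 20. The enzyme mix held 4 nM kinase and 100 μM PI(5)P diC8, and ATP was added from a 60 μM solution. After 1 h at RT, ADP-Glo luminescence gave % inhibition versus DMSO, fitted to IC50 over 10 threefold dilutions.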

| SMILES | pIC50 (PIP4K2B) | pIC50 (PIP4K 2A) |
| --- | --- | --- |
| O=C1CCCN1c1cc2c(cc1F)-c1cnc(Nc3cnc4c(c3)OCCO4)cc1CO2 [Example 165, 1-(3-((2,3-dihydro-[1,4]dioxino[2,3-b]pyridin-7-yl)amino)-9-fluoro-5H-chromeno[4,3-c]pyridin-8-yl)pyrrolidin-2-one] | 7.00 to 8.00 | 7.00 to 8.00 |
| CC1Oc2cc(N3CCCC3=O)c(F)cc2-c2cnc(Nc3cnc4c(c3)OCCO4)cc21 (centres unmarked) [Example 166, 1-(3-((2,3-dihydro-[1,4]dioxino[2,3-b]pyridin-7-yl)amino)-9-fluoro-5-methyl-5H-chromeno[4,3-c]pyridin-8-yl)pyrrolidin-2-one] | 7.00 to 8.00 | 8.00 to 9.00 |
| COCCC(=O)N1CCN(c2cncc(Nc3cc4c(cn3)-c3ccc(N5CCCC5=O)cc3OC4)c2)CC1 [Example 168, 1-(3-((5-(4-(3-methoxypropanoyl)piperazin-1-yl)pyridin-3-yl)amino)-5H-chromeno[4,3-c]pyridin-8-yl)pyrrolidin-2-one] | 7.00 to 8.00 | 7.00 to 8.00 |
| COCCC(=O)N1CCN(c2cncc(Nc3cc4c(cn3)-c3ccc(N5CCCC5=O)cc3OC4C)c2)CC1 (centres unmarked) [Example 169, 1-(3-((5-(4-(3-methoxypropanoyl)piperazin-1-yl)pyridin-3-yl)amino)-5-methyl-5H-chromeno[4,3-c]pyridin-8-yl)pyrrolidin-2-one] | 7.00 to 8.00 | 8.00 to 9.00 |
| COCCC(=O)N1CCN(c2cncc(Nc3cc4c(cn3)-c3cc(F)c(N5CCCC5=O)cc3OC4)c2)CC1 [Example 171, 1-(9-fluoro-3-((5-(4-(3-methoxypropanoyl)piperazin-1-yl)pyridin-3-yl)amino)-5H-chromeno[4,3-c]pyridin-8-yl)pyrrolidin-2-one] | 7.00 to 8.00 | 7.00 to 8.00 |
| COCCC(=O)N1CCN(c2cncc(Nc3cc4c(cn3)-c3cc(F)c(N5CCCC5=O)cc3OC4C)c2)CC1 (centres unmarked) [Example 172, 1-(9-fluoro-3-((5-(4-(3-methoxypropanoyl)piperazin-1-yl)pyridin-3-yl)amino)-5-methyl-5H-chromeno[4,3-c]pyridin-8-yl)pyrrolidin-2-one] | 7.00 to 8.00 | 8.00 to 9.00 |
| CC1Oc2cc(N3CCCC3=O)ccc2-c2cnc(Nc3cncc(NC(=O)c4ccc(NC(=O)/C=C/CN(C)C)cc4)c3)cc21 (centres unmarked) [Example 174, (E)-4-(4-(dimethylamino)but-2-enamido)-N-(5-((5-methyl-8-(2-oxopyrrolidin-1-yl)-5H-chromeno[4,3-c]pyridin-3-yl)amino)pyridin-3-yl)benzamide] | 7.00 to 8.00 | 8.00 to 9.00 |
| CC1Oc2cc(N3CCCC3=O)ccc2-c2cnc(Nc3cncc(NC(=O)CCc4cccc(NC(=O)/C=C/CN(C)C)c4)c3)cc21 (centres unmarked) [Example 176, (E)-4-(dimethylamino)-N-(3-(3-((5-((5-methyl-8-(2-oxopyrrolidin-1-yl)-5H-chromeno[4,3-c]pyridin-3-yl)amino)pyridin-3-yl)amino)-3-oxopropyl)phenyl)but-2-enamide] | 7.00 to 8.00 | 8.00 to 9.00 |
| CC1Oc2cc(N3CCCC3=O)ccc2-c2cnc(Nc3cncc(N4CCN(C)S4(=O)=O)c3)cc21 (centres unmarked) [Example 185, 1-(5-methyl-3-((5-(5-methyl-1,1-dioxido-1,2,5-thiadiazolidin-2-yl)pyridin-3-yl)amino)-5H-chromeno[4,3-c]pyridin-8-yl)pyrrolidin-2-one] | 6.00 to 7.00 | 8.00 to 9.00 |

Next, values leading:

| pIC50 (PIP4K2B) | pIC50 (PIP4K 2A) | SMILES |
| --- | --- | --- |
| 7.00 to 8.00 | 8.00 to 9.00 | O=C1NCCN1c1cncc(Nc2cc3c(cn2)-c2cc(F)c(N4CCCC4=O)cc2OC3)c1 [Example 161, 1-(5-((9-fluoro-8-(2-oxopyrrolidin-1-yl)-5H-chromeno[4,3-c]pyridin-3-yl)amino)pyridin-3-yl)imidazolidin-2-one] |
| 7.00 to 8.00 | 8.00 to 9.00 | CC1(C)Oc2cc(N3CCCC3=O)ccc2-c2cnc(Nc3cncc(N4CCNC4=O)c3)cc21 [Example 162, 1-(5-((5,5-dimethyl-8-(2-oxopyrrolidin-1-yl)-5H-chromeno[4,3-c]pyridin-3-yl)amino)pyridin-3-yl)imidazolidin-2-one] |
| 7.00 to 8.00 | 8.00 to 9.00 | O=C1CCCN1c1ccc2c(c1)OCc1cc(Nc3cnc4c(c3)OCCO4)ncc1-2 [Example 163, 1-(3-((2,3-dihydro-[1,4]dioxino[2,3-b]pyridin-7-yl)amino)-5H-chromeno[4,3-c]pyridin-8-yl)pyrrolidin-2-one] |
| 8.00 to 9.00 | 8.00 to 9.00 | CC1Oc2cc(N3CCCC3=O)ccc2-c2cnc(Nc3cncc(NC(=O)CCc4cccc(NC(=O)CCCN(C)C)c4)c3)cc21 (centres unmarked) [Example 177, 4-(dimethylamino)-N-(3-(3-((5-((5-methyl-8-(2-oxopyrrolidin-1-yl)-5H-chromeno[4,3-c]pyridin-3-yl)amino)pyridin-3-yl)amino)-3-oxopropyl)phenyl)butanamide] |
| 8.00 to 9.00 | ≥ 9.00 | CC1Oc2cc(N3CCCC3=O)ccc2-c2cnc(Nc3cncc(N4CCN(Cc5cccc(NC(=O)CNC(=O)/C=C/CN(C)C)c5)C4=O)c3)cc21 (centres unmarked) [Example 178, (E)-4-(dimethylamino)-N-(2-((3-((3-(5-((5-methyl-8-(2-oxopyrrolidin-1-yl)-5H-chromeno[4,3-c]pyridin-3-yl)amino)pyridin-3-yl)-2-oxoimidazolidin-1-yl)methyl)phenyl)amino)-2-oxoethyl)but-2-enamide] |
| 8.00 to 9.00 | ≥ 9.00 | CC1Oc2cc(N3CCCC3=O)ccc2-c2cnc(Nc3cnc4c(c3)N3C(=O)CC[C@@H]3CO4)cc21 (stereo partly drawn) [Example 180, (6aR)-2-((5-methyl-8-(2-oxopyrrolidin-1-yl)-5H-chromeno[4,3-c]pyridin-3-yl)amino)-6,6a,7,8-tetrahydro-9H-pyrido[2,3-b]pyrrolo[1,2-d][1,4]oxazin-9-one] |
| 8.00 to 9.00 | 8.00 to 9.00 | CC1Oc2cc(N3CCCC3=O)c(F)cc2-c2cnc(Nc3cnc4c(c3)N3C(=O)CC[C@@H]3CO4)cc21 (stereo partly drawn) [Example 181, (6aR)-2-((9-fluoro-5-methyl-8-(2-oxopyrrolidin-1-yl)-5H-chromeno[4,3-c]pyridin-3-yl)amino)-6,6a,7,8-tetrahydro-9H-pyrido[2,3-b]pyrrolo[1,2-d][1,4]oxazin-9-one] |
| 8.00 to 9.00 | 8.00 to 9.00 | O=C1CCCN1c1ccc2c(c1)OCc1cc(Nc3cnc4c(c3)N3C(=O)CC[C@@H]3CO4)ncc1-2 [Example 182, (R)-2-((8-(2-oxopyrrolidin-1-yl)-5H-chromeno[4,3-c]pyridin-3-yl)amino)-6,6a,7,8-tetrahydro-9H-pyrido[2,3-b]pyrrolo[1,2-d][1,4]oxazin-9-one] |
| 8.00 to 9.00 | 8.00 to 9.00 | CC1(C)Oc2cc(N3CCCC3=O)ccc2-c2cnc(Nc3cnc4c(c3)N3C(=O)CC[C@@H]3CO4)cc21 [Example 183, (R)-2-((5,5-dimethyl-8-(2-oxopyrrolidin-1-yl)-5H-chromeno[4,3-c]pyridin-3-yl)amino)-6,6a,7,8-tetrahydro-9H-pyrido[2,3-b]pyrrolo[1,2-d][1,4]oxazin-9-one] |
| 8.00 to 9.00 | ≥ 9.00 | CC1(C)Oc2cc(N3CCCC3=O)c(F)cc2-c2cnc(Nc3cnc4c(c3)N3C(=O)CC[C@@H]3CO4)cc21 [Example 184, (R)-2-((9-fluoro-5,5-dimethyl-8-(2-oxopyrrolidin-1-yl)-5H-chromeno[4,3-c]pyridin-3-yl)amino)-6,6a,7,8-tetrahydro-9H-pyrido[2,3-b]pyrrolo[1,2-d][1,4]oxazin-9-one] |
